The values below come from ChEMBL document CHEMBL3739345, “Design and synthesis of potent and selective inhibitors of BRD7 and BRD9 bromodomains” (Medchemcomm, 2015).

The target of experiment [1] is T1, Bromodomain-containing protein 9 (Homo sapiens, UniProt Q9H8M2).
T1 sequence (Q9H8M2 whole entry): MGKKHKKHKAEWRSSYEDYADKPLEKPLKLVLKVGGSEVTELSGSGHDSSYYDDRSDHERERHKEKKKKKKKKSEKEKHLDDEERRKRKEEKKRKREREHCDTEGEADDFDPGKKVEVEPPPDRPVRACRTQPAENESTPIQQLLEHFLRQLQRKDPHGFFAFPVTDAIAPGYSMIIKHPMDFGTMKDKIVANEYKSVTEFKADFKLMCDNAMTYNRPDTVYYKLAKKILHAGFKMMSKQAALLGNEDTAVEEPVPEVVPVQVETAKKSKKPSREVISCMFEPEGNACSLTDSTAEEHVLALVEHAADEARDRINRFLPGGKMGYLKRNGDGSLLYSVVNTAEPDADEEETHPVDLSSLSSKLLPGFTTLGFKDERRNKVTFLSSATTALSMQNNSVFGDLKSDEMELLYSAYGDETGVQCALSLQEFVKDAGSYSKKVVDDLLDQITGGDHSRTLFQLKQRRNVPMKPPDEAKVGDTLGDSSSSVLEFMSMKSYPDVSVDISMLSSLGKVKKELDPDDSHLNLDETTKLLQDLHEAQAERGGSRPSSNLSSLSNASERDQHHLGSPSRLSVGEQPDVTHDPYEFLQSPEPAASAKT
As to the kind of experiment: Binding affinity to human BRD9 by isothermal titration calorimetry.

The target in experiment [2] is Bromodomain-containing protein 2 (Homo sapiens) (UniProt P25440). In words: Binding affinity to human BRD2 at 10 uM by differential scanning fluorimetry.
For experiment [3], the target named is Bromodomain-containing protein 3 (Homo sapiens) (UniProt Q15059). As to the kind of experiment: Binding affinity to human BRD3 at 10 uM by differential scanning fluorimetry.
Experiment [4] has as its target CREB-binding protein (Homo sapiens) (UniProt Q92793). In words: Binding affinity to human CBP assessed as change in melting temperature at 10 uM by differential scanning fluorimetry.
Experiment [5] deals with T2, Bromodomain-containing protein 4 (Homo sapiens, UniProt O60885). As to the kind of experiment: Binding affinity to human BRD4 assessed as change in melting temperature at 10 uM by differential scanning fluorimetry.
For experiment [6], the target named is T3, Peregrin (Homo sapiens) (UniProt P55201).
T3 sequence (whole entry): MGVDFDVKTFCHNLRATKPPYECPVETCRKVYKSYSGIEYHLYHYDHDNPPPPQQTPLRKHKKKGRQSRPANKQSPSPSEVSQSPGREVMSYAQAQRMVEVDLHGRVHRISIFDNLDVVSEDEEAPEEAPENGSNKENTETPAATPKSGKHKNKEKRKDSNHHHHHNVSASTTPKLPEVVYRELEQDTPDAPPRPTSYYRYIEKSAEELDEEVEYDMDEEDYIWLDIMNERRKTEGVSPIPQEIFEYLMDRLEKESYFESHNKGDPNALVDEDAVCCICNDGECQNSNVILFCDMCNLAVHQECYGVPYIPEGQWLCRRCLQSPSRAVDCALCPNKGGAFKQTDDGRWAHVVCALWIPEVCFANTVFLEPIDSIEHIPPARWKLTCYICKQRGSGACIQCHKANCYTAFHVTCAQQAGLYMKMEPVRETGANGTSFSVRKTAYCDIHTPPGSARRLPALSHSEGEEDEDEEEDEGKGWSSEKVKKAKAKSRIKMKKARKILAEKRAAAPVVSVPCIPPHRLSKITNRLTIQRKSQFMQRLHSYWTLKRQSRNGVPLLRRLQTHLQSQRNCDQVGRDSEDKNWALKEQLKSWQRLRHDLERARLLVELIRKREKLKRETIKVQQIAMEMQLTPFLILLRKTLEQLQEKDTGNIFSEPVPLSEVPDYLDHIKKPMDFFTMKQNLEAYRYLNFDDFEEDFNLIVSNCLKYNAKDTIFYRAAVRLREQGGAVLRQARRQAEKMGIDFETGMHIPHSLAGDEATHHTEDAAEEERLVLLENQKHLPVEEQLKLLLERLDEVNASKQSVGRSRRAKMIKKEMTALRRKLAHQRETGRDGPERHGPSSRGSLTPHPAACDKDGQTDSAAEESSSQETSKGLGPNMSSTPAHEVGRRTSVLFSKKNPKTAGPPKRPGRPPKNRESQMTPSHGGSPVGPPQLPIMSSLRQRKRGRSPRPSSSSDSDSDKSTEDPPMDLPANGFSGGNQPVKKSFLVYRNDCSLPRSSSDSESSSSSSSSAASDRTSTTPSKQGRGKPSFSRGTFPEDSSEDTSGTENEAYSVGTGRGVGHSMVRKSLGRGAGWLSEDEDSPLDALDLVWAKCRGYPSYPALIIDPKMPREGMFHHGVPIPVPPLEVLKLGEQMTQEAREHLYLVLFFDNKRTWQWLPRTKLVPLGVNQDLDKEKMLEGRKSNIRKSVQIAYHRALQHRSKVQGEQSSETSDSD
As to the kind of experiment: Binding affinity to human BRPF1B assessed as change in melting temperature at 10 uM by differential scanning fluorimetry.

Experiment [7] concerns the target T2, Bromodomain-containing protein 4. As to the kind of experiment: Binding affinity to human BRD4 at 15 uM by isothermal titration calorimetry.
The target of experiment [8] is T4, Bromodomain-containing protein 9 (Homo sapiens) (UniProt Q9H8M2).
T4 sequence (whole entry): T1 sequence (Q9H8M2 whole entry)
In words: Binding affinity to human BRD9 assessed as change in melting temperature at 10 uM by differential scanning fluorimetry.

The target of experiment [9] is T1, Bromodomain-containing protein 9. In words: Inhibition of human BRD9 by alpha screen assay.

Calls of active or inactive are those of the source. The calls are words filed in the database; no cut-off is given here.

Sequence of Bromodomain-containing protein 3 (Homo sapiens) (Q15059 2-726 limits assumed): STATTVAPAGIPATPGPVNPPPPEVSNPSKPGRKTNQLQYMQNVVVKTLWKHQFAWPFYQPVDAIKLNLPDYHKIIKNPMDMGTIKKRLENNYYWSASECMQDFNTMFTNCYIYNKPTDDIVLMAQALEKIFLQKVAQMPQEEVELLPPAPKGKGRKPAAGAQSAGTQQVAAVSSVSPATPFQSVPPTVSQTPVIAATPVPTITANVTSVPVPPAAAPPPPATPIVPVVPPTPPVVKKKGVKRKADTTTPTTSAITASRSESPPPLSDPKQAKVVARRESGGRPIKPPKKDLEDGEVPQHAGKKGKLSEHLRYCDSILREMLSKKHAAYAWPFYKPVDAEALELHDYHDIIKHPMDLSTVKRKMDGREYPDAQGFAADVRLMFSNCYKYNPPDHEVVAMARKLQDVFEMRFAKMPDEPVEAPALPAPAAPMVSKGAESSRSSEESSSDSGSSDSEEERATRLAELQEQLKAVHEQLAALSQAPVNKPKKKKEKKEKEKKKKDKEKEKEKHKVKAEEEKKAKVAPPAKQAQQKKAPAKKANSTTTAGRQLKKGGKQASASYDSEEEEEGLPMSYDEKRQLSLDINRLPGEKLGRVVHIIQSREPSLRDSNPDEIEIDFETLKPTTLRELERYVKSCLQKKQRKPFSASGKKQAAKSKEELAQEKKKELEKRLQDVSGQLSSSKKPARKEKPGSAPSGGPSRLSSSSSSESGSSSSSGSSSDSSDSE
Sequence of Bromodomain-containing protein 2 (Homo sapiens) (P25440 whole entry, looked up): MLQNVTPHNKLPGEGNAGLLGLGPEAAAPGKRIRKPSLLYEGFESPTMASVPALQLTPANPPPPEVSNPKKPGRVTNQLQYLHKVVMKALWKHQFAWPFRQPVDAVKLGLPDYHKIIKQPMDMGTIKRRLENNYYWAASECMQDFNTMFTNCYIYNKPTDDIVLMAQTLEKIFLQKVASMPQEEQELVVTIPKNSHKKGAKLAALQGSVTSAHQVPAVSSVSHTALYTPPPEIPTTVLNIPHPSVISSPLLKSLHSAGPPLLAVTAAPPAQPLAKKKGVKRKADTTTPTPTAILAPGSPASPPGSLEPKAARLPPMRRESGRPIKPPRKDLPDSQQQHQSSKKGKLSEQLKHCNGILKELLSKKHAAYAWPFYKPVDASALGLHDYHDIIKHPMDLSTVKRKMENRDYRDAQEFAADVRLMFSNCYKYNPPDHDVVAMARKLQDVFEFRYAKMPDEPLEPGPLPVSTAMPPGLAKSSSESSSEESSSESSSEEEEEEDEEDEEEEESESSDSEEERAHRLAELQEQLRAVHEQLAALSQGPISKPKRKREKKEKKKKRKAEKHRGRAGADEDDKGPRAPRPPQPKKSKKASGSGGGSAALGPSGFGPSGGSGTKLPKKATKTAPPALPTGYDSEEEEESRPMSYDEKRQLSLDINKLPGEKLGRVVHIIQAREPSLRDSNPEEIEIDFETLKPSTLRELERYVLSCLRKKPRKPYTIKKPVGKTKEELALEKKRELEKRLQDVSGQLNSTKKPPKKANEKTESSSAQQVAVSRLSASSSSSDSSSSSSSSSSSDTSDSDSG
Sequence of CREB-binding protein (Homo sapiens) (Q92793 2-2442 limits assumed): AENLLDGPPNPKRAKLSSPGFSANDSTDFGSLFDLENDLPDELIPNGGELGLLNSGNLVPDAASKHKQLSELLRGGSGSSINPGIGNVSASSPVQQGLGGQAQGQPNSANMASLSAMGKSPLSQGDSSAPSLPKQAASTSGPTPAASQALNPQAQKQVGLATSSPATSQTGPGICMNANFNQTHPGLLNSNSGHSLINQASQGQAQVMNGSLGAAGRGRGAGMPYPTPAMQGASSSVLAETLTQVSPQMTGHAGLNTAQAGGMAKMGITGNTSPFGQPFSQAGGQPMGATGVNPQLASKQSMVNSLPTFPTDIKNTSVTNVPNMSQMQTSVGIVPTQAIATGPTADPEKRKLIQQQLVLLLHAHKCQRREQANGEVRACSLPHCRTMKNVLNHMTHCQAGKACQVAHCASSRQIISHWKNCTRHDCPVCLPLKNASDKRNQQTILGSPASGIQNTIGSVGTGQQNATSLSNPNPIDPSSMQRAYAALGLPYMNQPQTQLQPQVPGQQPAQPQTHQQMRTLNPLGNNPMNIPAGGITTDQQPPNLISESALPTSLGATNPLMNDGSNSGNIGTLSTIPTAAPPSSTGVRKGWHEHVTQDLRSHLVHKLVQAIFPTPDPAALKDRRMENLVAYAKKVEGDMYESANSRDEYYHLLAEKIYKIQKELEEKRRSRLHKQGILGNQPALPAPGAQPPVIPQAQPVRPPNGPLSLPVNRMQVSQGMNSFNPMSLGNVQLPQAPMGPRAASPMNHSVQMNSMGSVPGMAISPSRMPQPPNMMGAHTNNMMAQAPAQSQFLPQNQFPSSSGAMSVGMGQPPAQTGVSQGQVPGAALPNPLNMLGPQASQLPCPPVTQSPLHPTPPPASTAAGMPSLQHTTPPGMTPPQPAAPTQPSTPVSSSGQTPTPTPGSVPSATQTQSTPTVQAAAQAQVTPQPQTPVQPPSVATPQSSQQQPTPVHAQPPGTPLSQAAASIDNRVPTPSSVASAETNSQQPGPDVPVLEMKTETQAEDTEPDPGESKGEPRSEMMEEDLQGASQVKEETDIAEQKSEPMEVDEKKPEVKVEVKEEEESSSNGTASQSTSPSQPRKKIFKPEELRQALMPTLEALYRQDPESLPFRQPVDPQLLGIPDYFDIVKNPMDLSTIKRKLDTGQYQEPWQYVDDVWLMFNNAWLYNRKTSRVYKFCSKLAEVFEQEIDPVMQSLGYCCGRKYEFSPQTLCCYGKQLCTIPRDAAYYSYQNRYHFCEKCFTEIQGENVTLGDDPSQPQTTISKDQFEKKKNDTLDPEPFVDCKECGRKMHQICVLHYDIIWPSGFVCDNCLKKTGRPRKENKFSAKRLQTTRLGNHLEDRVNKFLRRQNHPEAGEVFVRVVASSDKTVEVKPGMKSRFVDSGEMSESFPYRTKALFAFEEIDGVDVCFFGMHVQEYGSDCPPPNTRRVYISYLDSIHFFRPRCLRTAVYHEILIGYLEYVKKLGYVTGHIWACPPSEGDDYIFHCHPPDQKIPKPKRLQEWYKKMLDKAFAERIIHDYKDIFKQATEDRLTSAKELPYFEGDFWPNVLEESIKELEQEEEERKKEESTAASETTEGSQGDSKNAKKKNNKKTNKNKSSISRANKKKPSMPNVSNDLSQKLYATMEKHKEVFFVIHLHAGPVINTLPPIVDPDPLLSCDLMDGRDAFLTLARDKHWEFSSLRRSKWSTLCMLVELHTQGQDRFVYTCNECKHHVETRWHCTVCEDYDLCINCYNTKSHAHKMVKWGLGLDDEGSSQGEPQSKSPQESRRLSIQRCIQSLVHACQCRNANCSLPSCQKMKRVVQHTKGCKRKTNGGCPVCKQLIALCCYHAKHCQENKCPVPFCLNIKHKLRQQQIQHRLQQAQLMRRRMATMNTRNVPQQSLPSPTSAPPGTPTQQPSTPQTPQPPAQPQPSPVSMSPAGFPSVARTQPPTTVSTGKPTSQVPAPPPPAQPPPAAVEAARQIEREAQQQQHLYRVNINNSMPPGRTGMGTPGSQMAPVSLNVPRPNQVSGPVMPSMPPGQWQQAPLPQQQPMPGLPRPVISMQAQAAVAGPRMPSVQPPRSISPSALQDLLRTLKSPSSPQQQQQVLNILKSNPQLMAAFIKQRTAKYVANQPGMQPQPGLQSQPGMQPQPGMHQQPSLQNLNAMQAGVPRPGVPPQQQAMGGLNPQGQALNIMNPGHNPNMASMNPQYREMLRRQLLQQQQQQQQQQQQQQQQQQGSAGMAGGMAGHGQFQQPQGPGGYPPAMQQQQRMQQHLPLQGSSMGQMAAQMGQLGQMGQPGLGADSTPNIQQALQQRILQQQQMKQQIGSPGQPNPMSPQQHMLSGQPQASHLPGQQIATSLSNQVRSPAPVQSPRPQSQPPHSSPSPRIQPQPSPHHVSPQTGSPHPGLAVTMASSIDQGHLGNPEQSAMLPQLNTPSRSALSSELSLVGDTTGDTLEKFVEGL

The molecule `CC(=O)c1cc(-c2cccc3nccn23)c2cc(N3CCOCC3)ccn12` returned a Kd in [1] of 68 nM. Moreover, the outcome in experiment [2] and in experiment [3] was Active. The ΔTm worked out at 1.8 °C in [4], 1.3 °C in [5], 1.7 °C in experiment [6] and 4.5 °C in experiment [8]. For the same molecule, in experiment [7], the outcome was inactive. Half-maximal inhibition in [9] (IC50) was put at 126 nM.
